Assay results: patent US10457677B2 (priority 2015, dated 2019)
Read-outs that look alike come from different tables or passages of the source.

Experiments:
[1] = test system: phosphorylation of CHK2 (phospho-Thr68) in HCT116 cells; assay: Cellular pCHK2 assay: bleomycin-induced phosphorylation of CHK2 (phospho-Thr68), immunofluorescence high-content analysis; format: cell-based, human; details: read-out: IC50 (pCHK2)
Description: For the identification of substances which inhibit the phosphorylation of the protein kinase CHK2 at the amino acid threonine 68, an immunofluorescence-based “high content” analysis assay was used in HCT116 cells.
In vitro cell-based immunofluorescence assay for the identification of inhibitors of bleomycin-induced phosphorylation of CHK2 (phospho-Thr68) in the human colon carcinoma cell line HCT116:
HCT116 cells are sown out in a defined cell density in 384-well plates in culture medium (DMEM high glucose, 2 mM GlutaMax, 1 mM Na pyruvate, 10% FCS) and incubated overnight at 37° C. and 10% of CO2. On the following day, the test substances are added in a defined concentration range (1 nM to 30 μM) in combination with 10 μM bleomycin, where the concentration of the solvent DMSO is kept constant at 0.5%. […] Parallel staining of DNA with propidium iodide enables determination of the cell count. The pCHK2 signal is detected using a high-content imager (Molecular Devices IMX Ultra) and automatic image analysis using the MetaXpress software belonging to the instrument. The number of cell nuclei which have a pCHK2 signal above a defined background is determined.

PI3K (p120γ) (human) = PI3K (p120γ) (human) (Homo sapiens (Human), UniProt P48736); assay: PI3K (p120γ) (human), non-radioactive assay (HTRF); format: biochemical; details: as printed:
Procedure: PI3K (p120γ) (Human), Non-radioactive Assay
(§1) PI3K (p120γ) (human) was incubated in an assay buffer comprising 10 μM phosphati-dylinositol 4,5-bisphosphate and MgATP (concentration as necessary). The reaction was initiated by addition of MgATP solution. After an incubation time of 30 min at room temperature, the reaction was stopped by addition of a solution consisting of EDTA and biotinylated phosphatidylinositol 3,4,5-trisphosphate. Finally, the detection buffer, consisting of a europium-labelled anti-GST monoclonal antibody, a GST-labelled GRP1 PH domain and streptavidin allophycocyanin, was added. The plate was read out via homogeneous time-resolved fluorescence (HTRF) and the corresponding signals were evaluated via the formula HTRF=10000×(Em665nm/Em620nm). • MgATP=magnesium 5′-O—[hydroxy({[(hydroxyphosphinato)oxy]phosphinato}oxy)phosphoryl]adenosine • MgCl2=magnesium dichloride • EGTA=ethylene glycol bis(aminoethyl ether) N,N,N′,N′-tetraacetic acid • Tween 20=polysorbate 20 Medicament/pharmaceutical Composition

[2] = target: purified human recombinant ATM (ataxia telangiectasia mutated), full length (Homo sapiens (Human), UniProt Q13315); assay: ATM kinase assay - determination of ATM inhibition (IC50 ATM), TR-FRET; format: biochemical; details: 10 μM ATP, substrate p53
Procedure: ATM kinase assay—determination of ATM inhibition (IC50 ATM):
The IC50 value was determined with the aid of a biochemical ATM kinase assay. The assay consists of two steps: the enzymatic reaction and the detection step. Firstly, ATM (ataxia telangiectasia mutated) protein and the test substance are incubated at different concentrations with addition of substrate protein p53 and ATP. ATM mediates the phosphorylation of p53 at several positions, including at amino acid S15. The amount of phosphorylated p53 is determined with the aid of specific antibodies and the TR-FRET technique. The enzymatic ATM assay is carried out as TR-FRET (HTRF™, Cisbio Bioassays) based 384-well assay. In the first step, purified human recombinant ATM (human ATM, full length, GenBank ID NM_000051, expressed in a mammal cell line) is incubated in assay buffer for 15 minutes with the ATM inhibitor in various concentrations and without test substance as negative or neutral control. The assay buffer comprises 25 mM HEPES pH 8.0, 10 mM Mg(CH3COO)2, 1 mM MnCl2, 0,1% BSA and 0,01% Brij® 35, 5 mM dithiothreitol (DTT). […] In the second step, purified human recombinant cmyc-labelled p53 (human p53, full length, GenBank ID BC003596, expressed in Sf21 insect cells) and ATP are added, and the reaction mixture is incubated at 22° C. for 30-35 minutes. The pharmacologically relevant assay volume is 5 μl. […] The enzymatic reaction is stopped by addition of EDTA. […] After incubation, usually for 2 hours (between 1.5 and 15h), for signal development, the plates are analysed in a plate reader (EnVision, PerkinElmer) using TRF mode (and with laser excitation). […] The measurement data were processed by means of Genedata Screener software.

PI3K p110δ/p85α (human) = PI3K p110δ/p85α (human) (Homo sapiens (Human), UniProt O00329); assay: PI3K p110δ/p85α (human), non-radioactive assay (HTRF); format: biochemical; details: as printed:
Procedure: PI3K p110δ/p85α (Human), Non-radioactive Assay
as §1, with “p110δ/p85α” for “(p120γ)”, “HTRF=10000×(Em665nm/Em620nm).” for “HTRF=10000×(Em665nm/Em620nm). • MgATP=magnesium 5′-O—[hydroxy({[(hydroxyphosphinato)oxy]phosphinato}oxy)phosphoryl]adenosine • MgCl2=magnesium dichloride • EGTA=ethylene glycol bis(aminoethyl ether) N,N,N′,N′-tetraacetic acid • Tween 20=polysorbate 20 Medicament/pharmaceutical Composition”

PI3K p110α/p85α (human) = PI3K p110α/p85α (human) (Homo sapiens (Human), UniProt P42336); assay: PI3K p110α/p85α (human), non-radioactive assay (HTRF); format: biochemical; details: as printed:
Procedure: PI3K p110α/p85α (Human), Non-radioactive Assay
PI3K p110α/p85α (human) was incubated in an assay buffer comprising 10 μM phosphati-dylinositol 4,5-bisphosphate and MgATP (concentration as necessary). The reaction was initiated by addition of MgATP solution. After incubation at room temperature for 40 minutes, the reaction was stopped by addition of a solution consisting of EDTA and biotinylated phosphatidylinositol 3,4,5-trisphosphate. Finally, the detection buffer, consisting of a europium-labelled anti-GST monoclonal antibody, a GST-labelled GRP1 PH domain and streptavidin allophycocyanin, was added. The plate was read out via homogeneous time-resolved fluorescence (HTRF) and the corresponding signals were evaluated via the formula HTRF=10000×(Em665nm/Em620nm).

purified human recombinant ATM (ataxia telangiectasia mutated), full length, sequence (Q13315 whole entry, change not shown): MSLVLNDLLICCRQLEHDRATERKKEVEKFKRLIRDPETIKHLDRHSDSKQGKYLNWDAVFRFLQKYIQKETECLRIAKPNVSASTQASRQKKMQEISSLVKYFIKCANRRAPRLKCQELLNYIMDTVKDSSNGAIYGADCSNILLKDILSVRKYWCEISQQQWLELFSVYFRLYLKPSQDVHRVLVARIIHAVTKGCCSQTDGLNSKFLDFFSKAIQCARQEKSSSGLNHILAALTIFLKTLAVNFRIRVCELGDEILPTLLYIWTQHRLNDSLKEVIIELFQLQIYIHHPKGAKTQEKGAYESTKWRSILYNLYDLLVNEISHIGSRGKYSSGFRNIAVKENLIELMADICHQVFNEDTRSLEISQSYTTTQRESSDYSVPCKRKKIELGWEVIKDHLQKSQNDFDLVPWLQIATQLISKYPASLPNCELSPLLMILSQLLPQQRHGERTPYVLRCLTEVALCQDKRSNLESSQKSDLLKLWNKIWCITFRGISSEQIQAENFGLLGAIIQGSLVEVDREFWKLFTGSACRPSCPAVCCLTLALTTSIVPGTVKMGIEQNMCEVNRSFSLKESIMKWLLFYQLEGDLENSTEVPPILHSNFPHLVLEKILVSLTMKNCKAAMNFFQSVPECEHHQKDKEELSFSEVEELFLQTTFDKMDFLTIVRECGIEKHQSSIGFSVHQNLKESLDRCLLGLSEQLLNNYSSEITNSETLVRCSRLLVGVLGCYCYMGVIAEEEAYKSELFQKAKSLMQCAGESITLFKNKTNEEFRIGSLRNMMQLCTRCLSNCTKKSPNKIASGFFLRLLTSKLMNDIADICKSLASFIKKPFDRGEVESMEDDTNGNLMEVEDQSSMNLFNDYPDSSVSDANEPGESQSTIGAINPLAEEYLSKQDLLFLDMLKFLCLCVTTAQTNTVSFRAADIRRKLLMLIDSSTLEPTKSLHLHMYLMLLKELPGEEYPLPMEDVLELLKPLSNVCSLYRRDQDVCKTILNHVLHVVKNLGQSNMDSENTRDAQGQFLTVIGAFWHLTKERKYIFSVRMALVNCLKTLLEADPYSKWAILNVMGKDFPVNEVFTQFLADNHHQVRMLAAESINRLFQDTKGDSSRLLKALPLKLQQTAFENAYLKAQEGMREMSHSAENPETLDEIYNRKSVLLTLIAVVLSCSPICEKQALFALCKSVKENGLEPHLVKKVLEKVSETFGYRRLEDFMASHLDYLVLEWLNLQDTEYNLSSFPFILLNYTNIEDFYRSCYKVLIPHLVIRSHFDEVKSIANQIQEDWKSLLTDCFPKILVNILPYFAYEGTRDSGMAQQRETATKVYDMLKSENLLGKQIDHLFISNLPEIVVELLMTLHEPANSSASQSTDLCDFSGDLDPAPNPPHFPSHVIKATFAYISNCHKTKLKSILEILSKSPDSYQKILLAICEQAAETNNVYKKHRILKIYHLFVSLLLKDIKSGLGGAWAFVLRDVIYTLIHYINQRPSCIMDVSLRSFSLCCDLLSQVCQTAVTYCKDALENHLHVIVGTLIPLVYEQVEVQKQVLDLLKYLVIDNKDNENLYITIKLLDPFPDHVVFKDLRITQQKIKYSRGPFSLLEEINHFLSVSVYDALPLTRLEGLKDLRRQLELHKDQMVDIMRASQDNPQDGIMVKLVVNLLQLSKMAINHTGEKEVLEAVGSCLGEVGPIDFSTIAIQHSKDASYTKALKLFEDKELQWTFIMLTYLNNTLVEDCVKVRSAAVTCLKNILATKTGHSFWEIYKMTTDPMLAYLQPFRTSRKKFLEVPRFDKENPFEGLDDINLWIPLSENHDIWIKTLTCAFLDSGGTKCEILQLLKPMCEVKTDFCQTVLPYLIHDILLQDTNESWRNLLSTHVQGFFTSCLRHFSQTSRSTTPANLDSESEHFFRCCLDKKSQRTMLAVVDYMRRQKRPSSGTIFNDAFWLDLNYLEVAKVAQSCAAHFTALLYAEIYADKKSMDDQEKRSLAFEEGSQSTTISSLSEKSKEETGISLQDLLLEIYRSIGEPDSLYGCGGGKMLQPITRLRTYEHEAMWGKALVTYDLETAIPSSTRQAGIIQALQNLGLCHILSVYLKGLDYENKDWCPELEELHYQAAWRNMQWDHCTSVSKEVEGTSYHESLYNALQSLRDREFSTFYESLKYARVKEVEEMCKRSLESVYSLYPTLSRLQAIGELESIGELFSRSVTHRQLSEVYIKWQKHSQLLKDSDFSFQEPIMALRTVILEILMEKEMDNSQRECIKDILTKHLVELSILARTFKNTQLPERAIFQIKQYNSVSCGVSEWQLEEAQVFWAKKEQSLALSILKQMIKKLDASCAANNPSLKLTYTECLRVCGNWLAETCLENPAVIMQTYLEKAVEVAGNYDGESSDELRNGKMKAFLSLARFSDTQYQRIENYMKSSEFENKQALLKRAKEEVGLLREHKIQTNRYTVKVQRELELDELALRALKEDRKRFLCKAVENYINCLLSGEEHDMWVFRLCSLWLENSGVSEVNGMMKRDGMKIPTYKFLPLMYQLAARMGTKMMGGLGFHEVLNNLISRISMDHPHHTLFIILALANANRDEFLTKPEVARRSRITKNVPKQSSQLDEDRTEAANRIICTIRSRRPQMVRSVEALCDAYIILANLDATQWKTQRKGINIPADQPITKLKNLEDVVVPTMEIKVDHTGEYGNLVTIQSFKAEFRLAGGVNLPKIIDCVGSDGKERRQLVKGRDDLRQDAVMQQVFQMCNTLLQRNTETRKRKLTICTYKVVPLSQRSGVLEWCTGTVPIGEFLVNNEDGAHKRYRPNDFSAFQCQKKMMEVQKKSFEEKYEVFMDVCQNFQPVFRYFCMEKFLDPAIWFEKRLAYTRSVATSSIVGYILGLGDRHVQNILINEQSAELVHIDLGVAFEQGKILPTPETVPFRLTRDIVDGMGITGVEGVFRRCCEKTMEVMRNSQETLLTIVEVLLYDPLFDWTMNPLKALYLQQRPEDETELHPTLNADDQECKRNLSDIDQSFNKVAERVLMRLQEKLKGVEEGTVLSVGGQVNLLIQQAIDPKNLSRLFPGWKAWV
PI3K p110α/p85α (human), sequence (P42336 whole entry): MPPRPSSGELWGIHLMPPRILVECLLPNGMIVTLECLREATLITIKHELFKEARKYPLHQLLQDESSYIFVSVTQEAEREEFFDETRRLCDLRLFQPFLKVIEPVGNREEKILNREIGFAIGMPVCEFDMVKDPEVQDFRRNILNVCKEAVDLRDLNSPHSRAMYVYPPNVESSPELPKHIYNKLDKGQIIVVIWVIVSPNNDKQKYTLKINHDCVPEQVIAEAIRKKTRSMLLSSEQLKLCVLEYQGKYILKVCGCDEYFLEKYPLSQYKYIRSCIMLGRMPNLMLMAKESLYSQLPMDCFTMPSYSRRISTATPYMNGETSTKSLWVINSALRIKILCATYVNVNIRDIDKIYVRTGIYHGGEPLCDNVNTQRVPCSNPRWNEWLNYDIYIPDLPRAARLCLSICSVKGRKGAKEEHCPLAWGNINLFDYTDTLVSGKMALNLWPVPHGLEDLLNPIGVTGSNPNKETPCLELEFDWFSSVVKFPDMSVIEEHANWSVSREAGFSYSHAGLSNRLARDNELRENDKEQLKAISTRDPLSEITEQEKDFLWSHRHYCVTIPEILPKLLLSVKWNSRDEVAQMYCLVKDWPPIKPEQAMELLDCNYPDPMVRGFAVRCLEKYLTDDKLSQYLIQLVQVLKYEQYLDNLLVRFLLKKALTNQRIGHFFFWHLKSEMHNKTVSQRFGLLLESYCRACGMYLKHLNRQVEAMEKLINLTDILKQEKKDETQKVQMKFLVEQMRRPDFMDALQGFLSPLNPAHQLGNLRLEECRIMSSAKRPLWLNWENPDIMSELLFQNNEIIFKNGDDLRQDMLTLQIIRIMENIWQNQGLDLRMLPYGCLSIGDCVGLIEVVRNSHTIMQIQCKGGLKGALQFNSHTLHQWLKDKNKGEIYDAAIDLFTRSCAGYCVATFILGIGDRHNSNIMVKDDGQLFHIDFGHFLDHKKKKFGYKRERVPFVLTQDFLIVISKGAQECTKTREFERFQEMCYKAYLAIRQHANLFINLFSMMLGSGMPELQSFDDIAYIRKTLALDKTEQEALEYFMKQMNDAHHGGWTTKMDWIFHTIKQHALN
PI3K p110α/p85α (human), sequence (P27986 whole entry partner): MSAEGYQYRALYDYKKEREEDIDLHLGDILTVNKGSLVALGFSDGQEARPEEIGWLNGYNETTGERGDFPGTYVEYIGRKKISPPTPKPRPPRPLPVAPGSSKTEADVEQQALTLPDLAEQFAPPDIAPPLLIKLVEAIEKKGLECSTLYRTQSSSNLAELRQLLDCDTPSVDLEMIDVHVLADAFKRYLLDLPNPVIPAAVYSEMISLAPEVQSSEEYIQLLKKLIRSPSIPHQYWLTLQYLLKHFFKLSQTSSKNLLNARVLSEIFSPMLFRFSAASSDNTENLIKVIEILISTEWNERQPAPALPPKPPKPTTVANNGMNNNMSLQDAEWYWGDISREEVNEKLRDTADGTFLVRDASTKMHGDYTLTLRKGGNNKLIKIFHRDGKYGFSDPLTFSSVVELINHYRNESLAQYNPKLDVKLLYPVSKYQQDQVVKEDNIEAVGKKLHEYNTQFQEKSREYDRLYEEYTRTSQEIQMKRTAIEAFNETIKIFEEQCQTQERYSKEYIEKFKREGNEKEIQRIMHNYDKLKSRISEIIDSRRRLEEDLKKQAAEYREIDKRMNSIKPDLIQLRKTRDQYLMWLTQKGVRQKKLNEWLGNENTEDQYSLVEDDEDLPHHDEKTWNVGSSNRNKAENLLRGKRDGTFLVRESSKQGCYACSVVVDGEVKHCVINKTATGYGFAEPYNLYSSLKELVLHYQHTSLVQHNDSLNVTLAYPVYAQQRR

Row | Molecule | IC50 ([1]; Homo sapiens, HCT-116, 4 h) | ratio IC50 (ATM) vs PI3Kgamma, selectivity with respect to PI3Kgamma (PI3K (p120γ) (human)) | IC50 [2] | ratio IC50 (ATM) vs PI3Kdelta, selectivity with respect to PI3Kdelta (PI3K p110δ/p85α (human)) | ratio IC50 (ATM) vs PI3Kalpha, selectivity with respect to PI3Kalpha (PI3K p110α/p85α (human)) | IC50 ([1]; HCT116 cells, 10 μM bleomycin, 4 h)
1 | CCc1cncc(F)c1-n1c(=O)n(C)c2cnc3cc(OC)c(-c4cn(C)nn4)cc3c21 [compound 126, 1-(3-Ethyl-5-fluoropyridin-4-yl)-7-methoxy-3-methyl-8-(1-methyl-1H-1,2,3-triazol-4-yl)-1,3-dihydroimidazo-[4,5-c] quinolin-2-one] | 0.2 to 1 µM | at least 2000 times | < 0.01 µM | at least 2000 times | at least 2000 times | 
2 | [2H]C([2H])([2H])Oc1cnc(-n2c(=O)n(C)c3cnc4cc(OC)c(-c5cnn(C)c5)cc4c32)c(F)c1 [compound 155, 1-[3-Fluoro-5-(trideuterio-methoxy)-2-pyridyl]-7-methoxy-3-methyl-8-(1-methylpyrazol-4-yl) imidazo-[4,5-c]quinolin-2-one] | < 0.2 µM |  | < 0.001 µM |  |  | 
3 | CNC(=O)c1cnc(-n2c(=O)n(C)c3cnc4cc(OC)c(-c5cnn(C)c5)cc4c32)c(F)c1 [compound 138, 5-Fluoro-6-[7-methoxy-3-methyl-8-(1-methyl-1H-pyrazol-4-yl)-2-oxo-2,3-dihydroimidazo[4,5-c]-quinolin-1-yl]-N-methyl-nicotinamid] | 0.2 to 1 µM |  | < 0.01 µM |  |  | 
4 | CCc1cnccc1-n1c(=O)n(C)c2cnc3cc(OC)c(-c4cnn(CC)c4)cc3c21 [compound 157, 8-(1-Ethyl-1H-pyrazol-4-yl)-1-(3-ethylpyridin-4-yl)-7-methoxy-3-methyl-1,3-dihydroimidazo[4,5-c] quinolin-2-one] | < 0.2 µM |  | < 0.01 µM |  |  | 
5 | COc1cc2ncc3c(c2cc1-c1cnn(C)c1)n(-c1cn(C)nc1F)c(=O)n3C [compound 141, 1-(3-Fluoro-1-methyl-1H-pyrazol-4-yl)-7-methoxy-3-methyl-8-(1-methyl-1H-pyrazol-4-yl)-1,3-dihydro-imidazo[4,5-c]quinolin-2-one] | 0.2 to 1 µM |  | < 0.01 µM |  |  | 
6 | COc1cc2ncc3c(c2cc1-c1cnn(C)c1)n(-c1ncc(OC(F)F)cc1F)c(=O)n3C [compound 114, 1-(5-Difluoromethoxy-3-fluoropyridin-2-yl)-7-methoxy-3-methyl-8-(1-methyl-1H-pyrazol-4-yl)-1,3-dihydroimidazo[4,5-c]-quinolin-2-one] | < 0.2 µM | at least 2000 times | < 0.001 µM | at least 2000 times | at least 2000 times | 
7 | COc1cnc(-n2c(=O)n(C)c3cnc4cc(OC)c(-c5c[nH]nc5C)cc4c32)c(F)c1 [compound 122, 1-(3-Fluoro-5-methoxy-pyridin-2-yl)-7-methoxy-3-methyl-8-(3-methyl-1H-pyrazol-4-yl)-1,3-dihydro-imidazo[4,5-c] quinolin-2-one] | < 0.2 µM | at least 2000 times | < 0.001 µM | at least 2000 times | at least 2000 times | 
8 | COc1cc2ncc3c(c2cc1-c1cnn(C)c1)n(-c1ncc(OC2CNC2)cc1F)c(=O)n3C [compound 205, 1-[5-(Azetidin-3-yloxy)-3-fluoropyridin-2-yl]-7-methoxy-3-methyl-8-(1-methyl-1H-pyrazol-4-yl)-1,3-dihydroimidazo[4,5-c]-quinolin-2-one] | 0.2 to 1 µM | at least 2000 times | < 0.001 µM | at least 2000 times | at least 2000 times | 
9 | COCCOc1cnc(-n2c(=O)n(C)c3cnc4cc(OC)c(-c5cnn(C)c5)cc4c32)c(F)c1 [compound 66, 1-[3-Fluoro-5-(2-methoxy-ethoxy)-2-pyridyl]-7-methoxy-3-methyl-8-(1-methylpyrazol-4-yl)imidazo-[4,5-c]quinolin-2-one] | < 0.2 µM | at least 2000 times | < 0.001 µM | at least 2000 times | at least 2000 times | 
10 | COc1cnc(-n2c(=O)n(C)c3cnc4cc(OC)c(-c5cnn(C)c5)cc4c32)c(F)c1 [compound 105, 1-(3-Fluoro-5-methoxy-pyridin-2-yl)-7-methoxy-3-methyl-8-(1-methyl-1H-pyrazol-4-yl)-1,3-dihydro-imidazo[4,5-c]quinolin-2-one] | 0.2 to 1 µM |  | < 0.001 µM |  |  | 
11 | COc1cc2ncc3c(c2cc1-c1cnn(C)c1)n(-c1ncc(OCCO)cc1F)c(=O)n3C [compound 67, 1-[3-Fluoro-5-(2-hydroxy-ethoxy)-2-pyridyl]-7-methoxy-3-methyl-8-(1-methylpyrazol-4-yl)imidazo-[4,5-c]quinolin-2-one] | < 0.2 µM | at least 2000 times | < 1 µM | at least 2000 times | at least 2000 times | 
12 | 1-(3-Fluoro-5-methylpyridin- 4-yl)-7-methoxy-3-methyl-8- (2-methyl-2H-1,2,3-triazol- 4-yl)-1,3-dihydroimidazo- [4,5-c] quinolin-2-one [compound 103] |  |  | < 0.05 µM |  |  | 0.2 to 1 µM
13 | COc1cc2ncc3c(c2cc1-c1cc[nH]n1)n(-c1cn(C)nc1C)c(=O)n3C [compound 121, 1-(1,3-Dimethyl-1H-pyrazol-4-yl)-7-methoxy-3-methyl-8-(1H-pyrazol-3-yl)-1,3-dihydroimidazo[4,5-c]-quinolin-2-one] | < 0.2 µM |  | < 0.01 µM |  |  | 
